Numbering of substitutions follows the chain as printed. Read-outs that look alike come from different tables or passages of the source.
What was measured:
humanBSEP = humanBSEP (Homo sapiens, UniProt O95342)
Description: (§1) Measurement of the vesicular transport activity in case of Bsep: The transport activity measurements were carried out with purified membrane vesicles containing human, rat or mouse Bsep (ABCB11, sPgp) transporter isolated from baculovirus infected Sf9 (Spodoptera frugiperda)cells. The membrane preparations contain 5-16% closed, inside-out oriented, membrane vesicles. The transporter pumps the molecules inside of these vesicles. The vesicles can be separated by rapid filtration of the membrane suspension through a glass filter or through a nitrocellulose membrane (using vacuum).
(§2) The quantitative determination of the transported molecule can be done in several ways, like: HPLC, LC/MS, but also fluorescent or radioactive labeling is also suitable. Tritium labeled substrates were used in the assays and the mode of detection was liquid-scintillation.
(§3) Assay Design and Main Steps for Bsep • Prepare an appropriate concentration of membrane suspension in assay buffer; add the unlabeled and ^3H-labeled substrates to the suspension.

mouseBsep [1] = target: T1, mouseBsep (Mus musculus, UniProt Q9QY30)
T1 sequence (Q9QY30 1-1321): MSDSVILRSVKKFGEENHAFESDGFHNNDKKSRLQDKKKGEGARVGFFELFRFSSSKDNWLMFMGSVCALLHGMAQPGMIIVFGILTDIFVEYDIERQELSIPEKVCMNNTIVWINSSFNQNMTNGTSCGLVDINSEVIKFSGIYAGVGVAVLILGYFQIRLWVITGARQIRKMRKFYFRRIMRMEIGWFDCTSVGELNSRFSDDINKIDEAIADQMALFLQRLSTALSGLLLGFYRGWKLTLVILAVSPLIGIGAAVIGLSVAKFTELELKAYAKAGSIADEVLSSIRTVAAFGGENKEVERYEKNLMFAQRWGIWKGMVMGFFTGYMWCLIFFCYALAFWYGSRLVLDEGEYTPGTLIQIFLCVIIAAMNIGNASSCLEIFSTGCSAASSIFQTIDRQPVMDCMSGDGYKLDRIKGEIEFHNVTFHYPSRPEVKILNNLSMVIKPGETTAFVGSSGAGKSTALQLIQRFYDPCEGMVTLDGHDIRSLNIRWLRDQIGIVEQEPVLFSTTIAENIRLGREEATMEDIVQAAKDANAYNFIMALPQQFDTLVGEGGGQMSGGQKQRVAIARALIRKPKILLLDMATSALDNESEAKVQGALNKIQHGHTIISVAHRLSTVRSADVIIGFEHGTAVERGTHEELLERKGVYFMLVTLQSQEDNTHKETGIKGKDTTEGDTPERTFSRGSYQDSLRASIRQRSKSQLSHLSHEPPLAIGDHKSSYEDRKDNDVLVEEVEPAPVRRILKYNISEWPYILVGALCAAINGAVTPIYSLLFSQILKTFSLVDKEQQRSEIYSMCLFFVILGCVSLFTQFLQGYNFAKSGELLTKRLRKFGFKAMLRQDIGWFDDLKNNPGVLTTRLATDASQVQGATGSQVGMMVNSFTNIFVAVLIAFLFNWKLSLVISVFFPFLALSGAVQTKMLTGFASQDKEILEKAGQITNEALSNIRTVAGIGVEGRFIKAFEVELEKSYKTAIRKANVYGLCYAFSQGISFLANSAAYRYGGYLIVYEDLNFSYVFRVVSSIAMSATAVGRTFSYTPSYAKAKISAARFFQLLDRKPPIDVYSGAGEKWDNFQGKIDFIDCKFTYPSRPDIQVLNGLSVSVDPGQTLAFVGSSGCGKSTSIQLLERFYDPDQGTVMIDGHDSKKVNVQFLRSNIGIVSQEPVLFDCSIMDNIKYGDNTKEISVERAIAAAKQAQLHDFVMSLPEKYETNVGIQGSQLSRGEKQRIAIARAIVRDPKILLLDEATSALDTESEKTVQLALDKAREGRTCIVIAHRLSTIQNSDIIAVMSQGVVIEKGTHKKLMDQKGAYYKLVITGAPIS
Description: as §1, §2, §3

ratBsep = ratBsep (Rattus norvegicus, UniProt O70127)
Description: as §1, §2, §3

wild-type ABCG2 [2] = target: T2, wild-type ABCG2 (Homo sapiens, UniProt Q9UNQ0); test: Vesicular transport assay, inside-out ABCG2-Sf9 membrane vesicles
T2 sequence (Q9UNQ0 1-655): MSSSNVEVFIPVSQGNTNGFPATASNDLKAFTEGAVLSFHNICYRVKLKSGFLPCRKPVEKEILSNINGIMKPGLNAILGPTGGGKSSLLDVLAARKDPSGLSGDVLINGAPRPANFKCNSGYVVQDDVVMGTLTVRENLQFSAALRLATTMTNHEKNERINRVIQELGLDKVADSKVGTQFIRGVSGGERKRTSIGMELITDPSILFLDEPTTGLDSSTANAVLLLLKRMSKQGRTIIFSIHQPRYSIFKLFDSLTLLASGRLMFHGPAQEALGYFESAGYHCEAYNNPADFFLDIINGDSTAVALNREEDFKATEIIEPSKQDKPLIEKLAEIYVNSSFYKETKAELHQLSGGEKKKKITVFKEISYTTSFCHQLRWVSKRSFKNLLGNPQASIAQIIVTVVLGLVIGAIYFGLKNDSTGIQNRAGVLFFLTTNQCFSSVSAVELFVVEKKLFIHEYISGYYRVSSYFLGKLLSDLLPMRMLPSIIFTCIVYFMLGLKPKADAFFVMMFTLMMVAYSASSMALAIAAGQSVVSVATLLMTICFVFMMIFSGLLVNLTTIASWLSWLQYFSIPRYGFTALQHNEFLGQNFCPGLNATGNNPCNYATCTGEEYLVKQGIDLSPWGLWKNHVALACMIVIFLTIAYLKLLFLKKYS
Description: as §1, with “activity:” for “activity in case of Bsep:”, “ABCG2” for “human, rat”, “or” for “or mouse”, “Bsep” for “Bsep (ABCB11, sPgp) transporter”, “frugiperda) cells or mammalian (ABCG2-M) cells.” for “frugiperda)cells.”, “rapidly filtrating” for “rapid filtration”
as §2
Measurement of the vesicular transport activity in case of ABCG2: More closely, as examples, inside-out membrane vesicles were incubated in the presence or absence of 4 mM ATP. […] The transport was stopped by addition of cold wash buffer (40 mM MOPS-Tris (pH 7.0), 70 mM KCl).
The transport was stopped by addition of cold wash buffer (10 mM Tris-HCl, pH 7.4; 250 mM sucrose and 100 mM NaCl).
For estrone-3-sulfate vesicular transport 10 mM Tris-HCl, (pH 7.4), 250 mM sucrose, and 10 mM MgCl2 containing buffer were incubated at 32° C. for 1 min. The transport was stopped by addition of cold wash buffer (10 mM Tris-HCl, pH 7.4; 250 mM sucrose and 100 mM NaCl).
The incubation mix was then rapidly filtered through class B glass fiber filters (pore size, 0.1 μm). Filters were washed with 5×200 μl of ice cold wash buffer and radioactivity retained on the filter was measured by liquid scintillation counting. ATP-dependent transport was calculated by subtracting the values obtained in the absence of ATP from those in the presence of ATP.
Exemplary Assay Design and Main Steps for ABCG2 • Prepare an appropriate concentration of membrane suspension in assay buffer; add the unlabeled and ^3H-labeled substrates to the suspension.

wild-type ABCG2 [3] = target: T2, wild-type ABCG2; conditions: 2 min
Description: Following UV-irradiation, gel-electrophoresis and electroblotting, the labeled bands were visualized by Phospho-Imager.
Isolated Sf9 cell membranes, containing the same amount of wild-type ABCG2 protein were loaded with cholesterol by preincubation with 4 mM C-CD, as described in the Methods. Cholesterol-loaded membrane vesicles contained 50 μg cholesterol/mg membrane protein, while the control membranes contained 8 μg cholesterol/mg membrane protein.

ABCG2-R482T = target: T3, ABCG2-R482T (Homo sapiens, UniProt Q9UNQ0, R482T); test: Vesicular MTX transport, Sf9 vesicles with R482T variant; assay type: biochemical; conditions: irrespective of the membrane cholesterol content
T3 construct: made in house; host or cells: Sf9 cells infected with recombinant baculovirus
T3 sequence (Q9UNQ0 1-655 R482T): T2 sequence (Q9UNQ0 1-655) with R482T

R482G-ABCG2 = target: T4, R482G-ABCG2 (Homo sapiens, UniProt Q9UNQ0, R482G); test: Vesicular MTX transport, Sf9 vesicles with R482G variant; assay type: biochemical; conditions: control and cholesterol-loaded Sf9 membrane vesicles
T4 construct: made in house; host or cells: Sf9 cells infected with recombinant baculovirus
T4 sequence (Q9UNQ0 1-655 R482G): T2 sequence (Q9UNQ0 1-655) with R482G
Description: MTX uptake was measured at 100 μM MTX concentration for 5 min at 37° C. in membrane vesicles containing the human wild-type ABCG2 (WT), or R482G-ABCG2 (G) transporter.
MTX and ESG uptake was measured for 5 min at 37° C. at 5 mM ATP in membrane vesicles containing the human wild-type ABCG2 (WT), or R482G-ABCG2 (G) transporter. […] The mean values±SD are presented.
Vesicular transport studies: In these experiments we carried out direct, ATP-dependent substrate transport measurements by using isolated inside-out membrane vesicles of ABCG2-expressing Sf9 cells.

mouseBsep [4] = target: T1, mouseBsep; test: Vanadate sensitive ATPase assay, mouseBsep Sf9 membrane vesicles; assay type: biochemical; design: made in house; host or cells: baculovirus infected Sf9 (Spodoptera frugiperda) cells
Excerpt: The samples treated with cholesterol@RAMEB complex were compared with untreated vesicles.

Chain of ratBsep (O70127 whole entry): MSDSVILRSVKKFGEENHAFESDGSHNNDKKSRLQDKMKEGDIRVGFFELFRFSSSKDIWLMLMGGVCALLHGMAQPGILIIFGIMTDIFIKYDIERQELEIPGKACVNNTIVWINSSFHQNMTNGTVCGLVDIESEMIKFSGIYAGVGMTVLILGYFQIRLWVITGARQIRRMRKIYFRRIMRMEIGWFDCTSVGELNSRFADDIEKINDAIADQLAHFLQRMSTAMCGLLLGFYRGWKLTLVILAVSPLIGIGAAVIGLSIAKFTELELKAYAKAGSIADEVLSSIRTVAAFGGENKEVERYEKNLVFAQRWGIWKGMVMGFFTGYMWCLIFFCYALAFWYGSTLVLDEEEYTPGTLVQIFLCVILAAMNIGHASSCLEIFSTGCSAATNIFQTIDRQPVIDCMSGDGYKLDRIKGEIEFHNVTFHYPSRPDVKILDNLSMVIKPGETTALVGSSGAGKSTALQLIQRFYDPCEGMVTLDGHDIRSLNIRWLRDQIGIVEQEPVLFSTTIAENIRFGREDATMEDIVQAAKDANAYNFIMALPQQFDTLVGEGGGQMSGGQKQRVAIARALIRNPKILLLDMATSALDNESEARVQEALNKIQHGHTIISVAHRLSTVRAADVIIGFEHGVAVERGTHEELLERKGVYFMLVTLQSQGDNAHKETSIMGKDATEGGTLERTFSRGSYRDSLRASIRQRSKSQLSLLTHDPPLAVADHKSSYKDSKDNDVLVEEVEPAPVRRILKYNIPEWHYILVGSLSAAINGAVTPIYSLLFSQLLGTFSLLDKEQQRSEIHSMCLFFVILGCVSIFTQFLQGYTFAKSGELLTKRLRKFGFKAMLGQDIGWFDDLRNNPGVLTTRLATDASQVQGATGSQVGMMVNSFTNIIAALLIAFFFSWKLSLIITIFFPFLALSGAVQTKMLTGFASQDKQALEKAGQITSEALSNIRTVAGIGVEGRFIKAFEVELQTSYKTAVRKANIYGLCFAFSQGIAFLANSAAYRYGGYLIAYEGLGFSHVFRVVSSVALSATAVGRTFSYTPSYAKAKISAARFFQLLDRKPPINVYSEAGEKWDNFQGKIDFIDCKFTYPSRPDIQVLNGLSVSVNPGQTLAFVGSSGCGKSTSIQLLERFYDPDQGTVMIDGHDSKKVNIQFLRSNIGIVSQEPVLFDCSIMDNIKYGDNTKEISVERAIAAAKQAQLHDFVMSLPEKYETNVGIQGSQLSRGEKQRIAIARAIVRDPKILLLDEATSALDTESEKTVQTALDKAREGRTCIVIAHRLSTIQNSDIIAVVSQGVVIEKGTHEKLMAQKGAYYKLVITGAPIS
Chain of humanBSEP (O95342 whole entry): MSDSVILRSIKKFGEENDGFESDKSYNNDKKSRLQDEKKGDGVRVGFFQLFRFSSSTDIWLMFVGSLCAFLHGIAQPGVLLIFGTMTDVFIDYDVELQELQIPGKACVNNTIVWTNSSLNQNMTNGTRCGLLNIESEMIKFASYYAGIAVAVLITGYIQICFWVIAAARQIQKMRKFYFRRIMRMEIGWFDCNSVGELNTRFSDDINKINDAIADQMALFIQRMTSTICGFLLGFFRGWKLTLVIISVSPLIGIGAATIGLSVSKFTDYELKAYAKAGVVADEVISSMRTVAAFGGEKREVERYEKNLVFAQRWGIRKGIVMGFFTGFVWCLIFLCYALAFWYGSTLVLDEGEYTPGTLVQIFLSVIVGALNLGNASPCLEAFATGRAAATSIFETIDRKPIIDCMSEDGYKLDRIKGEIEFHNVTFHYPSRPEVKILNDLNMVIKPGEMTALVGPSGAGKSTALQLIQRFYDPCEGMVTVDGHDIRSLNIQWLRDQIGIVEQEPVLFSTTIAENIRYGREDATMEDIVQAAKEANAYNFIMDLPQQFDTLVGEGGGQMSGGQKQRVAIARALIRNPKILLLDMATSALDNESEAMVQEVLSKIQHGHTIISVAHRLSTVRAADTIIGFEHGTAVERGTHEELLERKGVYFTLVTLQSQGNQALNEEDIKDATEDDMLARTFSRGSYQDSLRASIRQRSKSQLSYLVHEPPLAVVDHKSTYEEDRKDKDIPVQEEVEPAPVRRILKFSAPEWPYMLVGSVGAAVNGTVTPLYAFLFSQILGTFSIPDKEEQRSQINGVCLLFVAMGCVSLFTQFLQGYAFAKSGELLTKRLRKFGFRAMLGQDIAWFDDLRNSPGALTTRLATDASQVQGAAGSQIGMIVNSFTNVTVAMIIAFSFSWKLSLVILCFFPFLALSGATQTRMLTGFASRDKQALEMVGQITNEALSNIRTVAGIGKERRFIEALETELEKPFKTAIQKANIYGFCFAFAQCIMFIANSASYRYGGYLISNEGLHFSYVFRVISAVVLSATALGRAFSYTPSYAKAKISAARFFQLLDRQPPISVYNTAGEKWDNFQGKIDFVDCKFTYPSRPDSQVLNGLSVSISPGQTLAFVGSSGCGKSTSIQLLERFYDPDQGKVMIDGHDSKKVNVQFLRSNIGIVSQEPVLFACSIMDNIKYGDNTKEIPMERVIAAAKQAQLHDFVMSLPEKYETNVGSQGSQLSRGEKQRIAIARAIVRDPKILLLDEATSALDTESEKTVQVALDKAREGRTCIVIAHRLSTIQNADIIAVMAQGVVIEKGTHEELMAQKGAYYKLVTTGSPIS

## C[C@H](CCC(=O)NCCS(=O)(=O)O)[C@H]1CC[C@H]2[C@@H]3[C@H](O)C[C@@H]4C[C@H](O)CC[C@]4(C)[C@H]3C[C@H](O)[C@]12C [TC, Taurocholic acid]
humanBSEP; humanBSEP-Sf9 + Chol
  VMAX of taurocholate transport: 323 pmol TC/mg prot/min
humanBSEP; humanBSEP-Sf9 CTRL
  VMAX of taurocholate transport: 169.4 pmol TC/mg prot/min
mouseBsep [1]; mouseBsep-Sf9 + Chol
  VMAX of taurocholate transport: 1843 pmol TC/mg prot/min
mouseBsep [1]; mouseBsep-Sf9 CTRL
  VMAX of taurocholate transport: 1199 pmol TC/mg prot/min
ratBsep; ratBsep-Sf9 + Chol
  VMAX of taurocholate transport: 121.3 pmol TC/mg prot/min
ratBsep; ratBsep-Sf9 CTRL
  VMAX of taurocholate transport: 14.54 pmol TC/mg prot/min

## CC(C)CCC[C@@H](C)[C@H]1CC[C@H]2[C@@H]3CC=C4C[C@@H](O)CC[C@]4(C)[C@H]3CC[C@]12C [cholesterol]
wild-type ABCG2 [2]; human
  Increase of maximum transport rate of ABCG2 by increasing membrane cholesterol levels: up to 20 fold
wild-type ABCG2 [3]
  mean relative value of ABCG2 labeling (basic level of nucleotide trapping) after cholesterol loading: 105%

## CN(Cc1cnc2nc(N)nc(N)c2n1)c1ccc(C(=O)N[C@@H](CCC(=O)O)C(=O)O)cc1 [methotrexate]
ABCG2-R482T
  MTX transport rate: below 50 pmoles/mg membrane protein/min
wild-type ABCG2 [2]
  Increase of Vmax of vesicular transport by cholesterol loading: six-fold
R482G-ABCG2
  MTX transport (in words): very low

## C[C@H](CCC(=O)NCCS(=O)(=O)O)[C@H]1CC[C@H]2[C@@H]3[C@H](O)C[C@@H]4C[C@H](O)CC[C@]4(C)[C@H]3CC[C@]12C [taurochenodeoxycholate]
mouseBsep [4]; cholesterol loaded mouseBsep vesicles, basal 4.7
  Vanadate sensitive ATPase activity in the presence of the substrate: 39 nmol Pi/mg prot/min
mouseBsep [4]; untreated mouseBsep vesicles, basal 37
  Vanadate sensitive ATPase activity in the presence of the substrate: 64 nmol Pi/mg prot/min
